Results on 4 compounds are retold here after ChEMBL document CHEMBL1126050, “Edward E. Smissman-Bristol-Myers Squibb Award Address. The role of concepts in structure-activity relationship studies of opioid ligands” (1992).

SMILES strings stand for the structures.

The experiment relates to Mus musculus. Put plainly: Compound was evaluated for antinociceptive potency by subcutaneous administration in mice using the hotplate assay. The experiment is classed as functional. The note with it: sc.

Compound `CC1[C@@H]2Cc3ccc(O)cc3[C@@]1(C)CCN2CCc1ccccc1` (some centres undefined) registered an ED50 of 0.1 mg/kg.

In the case of `C[C@H]1C2Cc3ccc(O)cc3[C@]1(C)CCN2C`, it took a dose of 2.6 mg/kg to reach the 50% effect level (ED50).

Turning to `Oc1cccc([C@@]23CCC[C@@H](C2)N(CCc2ccccc2)CC3)c1`, the median effective dose (ED50) was 3.99 mg/kg.

In turn, `CN1CC[C@]2(c3cccc(O)c3)CCC[C@H]1C2` registered an ED50 of 2 mg/kg.
